Reference: patent US20260191998A1, “INDOLE PHTHALOCYANINE COMPOUND, PREPARATION METHOD THEREFOR, AND USE THEREOF IN TUMOR DIAGNOSIS IMAGING” (JIANGSU YAHONG MEDITECH CO., LTD., priority 2022, published 2026)
Structures can show the parent of a compound that is named as a salt.

Assay: UV-VIS absorption spectra (optical property test)
Type: physicochemical
Conditions: 10 μM, DMSO solution; for Absorbance × 10^4: at maximum absorption peak
Procedure: The UV-VIS absorption spectra of the compounds (10 μM, DMSO solution) were detected using Shimadzu UV2600 spectrophotometer, and the maximum absorption peak and absorbance of each compound were obtained.

Compound	Absorption peak	Absorbance × 10^4
CC1(C)C(/C=C/C2=C(Cl)C(=C/C=C3/N(CCCCCC(=O)O)c4ccccc4C3(C)C)/CCC2)=[N+](CCCCCC(=O)Oc2ccccc2)c2ccccc21 [Example 85A]	796.5 nm	2.239
CC[N+]1=C(/C=C/C2=C(Cl)C(=C/C=C3/N(CCCCCC(=O)O)c4ccc5ccccc5c4C3(C)C)/CC2)C(C)(C)c2c1ccc1ccccc21 [Example 1B, 2-((E)-2-((E)-3-((E)-2-(3-(5-carboxypentyl)-1,1-dimethyl-1,3-dihydro-2H-benzo[e]indol-2-ylidene)ethenyl)-2-chlorocyclopent-1-en-1-yl)ethenyl)-3-ethyl-1,1-dimethyl-1H-benzo[e]indol-3-ium Chloride]	859.5 nm	2.03
C[n+]1cccc2c1N=C(/C=C/C1=C(Cl)C(=C/C=C3/N(CCCCCC(=O)O)c4ccccc4C3(C)C)/CC1)C2(C)C [Example 63, 2-((E)-2-((E)-3-(2-((E)-1-(5-carboxypentyl)-3,3-dimethylindolin-2-ylidene)ethenyl)-2-chlorocyclopent-1-en-1-yl)ethenyl)-3,3,7-trimethyl-3H-pyrrolo[2,3-b]pyridin-7-ium Chloride]	–	0.31
Cc1cccc(C)c1OC(=O)CCCCC[N+]1=C(/C=C/C2=C(Cl)C(=C/C=C3/N(CCCCCC(=O)O)c4ccccc4C3(C)C)/CC2)C(C)(C)c2ccccc21 [Example 88, 2-((E)-2-((E)-3-(2-((E)-1-(5-carboxypentyl)-3,3-dimethylindolin-2-ylidene)ethenyl)-2-chlorocyclopent-1-en-1-yl)ethenyl)-1-(6-(2,6-dimethylphenoxy)-6-oxohexyl)-3,3-dimethyl-3H-indol-1-ium Acetate]	–	1.75
CC[N+]1=C(/C=C/C2=C(Cl)C(=C/C=C3/N(CCOCCCC(=O)Oc4ccccc4)c4ccccc4C3(C)C)/CCC2)C(C)(C)c2ccccc21 [Example 36, 2-((E)-2-((E)-2-chloro-3-(2-((E)-3,3-dimethyl-1-(2-(4-oxo-4-phenoxybutoxy)ethyl)indolin-2-ylidene)ethenyl)cyclohex-1-en-1-yl)ethenyl)-1-ethyl-3,3-dimethyl-3H-indol-1-ium 2,2,2-trifluoroacetate]	795.5 nm	3.368
5-carboxy-2-((E)-2-((E)-2-chloro-3-(2-((E)-3,3-dimethyl-1-(2-(3-oxo-3-phenoxypropoxy)ethyl)indolin-2-ylidene)ethenyl)cyclohex-1-en-1-yl)ethenyl)-1-ethyl-3,3-dimethyl-3H-indol-1-ium 2,2,2-trifluoroacetate [Example 123]	–	1.3
CC1(C)C(/C=C/C2=C(Cl)C(=C/C=C3/N(CCCCCC(=O)Oc4ccccc4)c4ccccc4C3(C)C)/CCC2)=[N+](CCCCCC(=O)O)c2ccccc21 [Example 11]	796.5 nm	2.27
CN1C(=O)/C(=C\C2=C(Cl)C(=C/C=C3/N(CCCCC(=O)Oc4ccccc4)c4ccccc4C3(C)C)/C[N+](C)(C)C2)c2ccccc21 [Example 38]	584 nm	0.364
CC[N+]1=C(/C=C/C2=C(Cl)C(=C/C=C3/N(CCOCCC(=O)Oc4ccccc4)c4ccccc4C3(C)C)/CCC2)C(C)(C)c2cc(C(=O)O)ccc21 [Example 117, 5-carboxy-2-((E)-2-((E)-2-chloro-3-(2-((E)-3,3-dimethyl-1-(2-(3-oxo-3-phenoxypropoxy)ethyl)indolin-2-ylidene)ethenyl)cyclohex-1-en-1-yl)ethenyl)-1-ethyl-3,3-dimethyl-3H-indol-1-ium 2,2,2-trifluoroacetate]	–	1.36
CC1(C)C(/C=C/C2=C(Cl)C(=C/C=C3/N(CCCCCC(=O)Nc4ccccc4)c4ccccc4C3(C)C)/CCC2)=[N+](CCCCCC(=O)O)c2ccccc21 [Example 27A, 1-(5-carboxypentyl)-2-((E)-2-((E)-2-chloro-3-(2-((E)-3,3-dimethyl-1-(6-oxo-6-(phenylamino)hexyl)indolin-2-ylidene)ethenyl)cyclohex-1-en-1-yl)ethenyl)-3,3-dimethyl-3H-indol-1-ium 2,2,2-trifluoroacetate]	796.5 nm	2.29
CC[N+]1=C(/C=C/C2=C(Oc3ccc(S(=O)(=O)O)cc3)C(=C/C=C3/N(CCCCCC(=O)Oc4ccccc4)c4ccccc4C3(C)C)/C[N+](C)(C)C2)C(C)(C)c2ccccc21 [Example 112]	756 nm	0.911
C[n+]1cccc2c1N=C(/C=C/C1=C(Cl)C(=C/C=C3/N(CCCCCC(=O)O)c4ccccc4C3(C)C)/CCC1)C2(C)C [Example 64, 2-((E)-2-((E)-3-(2-((E)-1-(5-carboxypentyl)-3,3-dimethylindolin-2-ylidene)ethenyl)-2-chlorocyclohex-1-en-1-yl)ethenyl)-3,3,7-trimethyl-3H-pyrrolo[2,3-b]pyridin-7-ium Chloride]	–	0.5
CC[N+]1=C(/C=C/C2=C(Br)C(=C/C=C3/N(CCCCCC(=O)O)c4ccccc4C3(C)C)/CCC2)C(C)(C)c2ccccc21.[Cl-] [Example 96]	–	2.45
CC[N+]1=C(/C=C/C2=C(Cl)C(=C/C=C3/N(Cc4ccc(C(=O)Oc5ccccc5)cc4)c4ccc5ccccc5c4C3(C)C)/CCC2)C(C)(C)c2c1ccc1ccccc21 [Example 3]	835 nm	1.88
5-carboxy-2-((E)-2-((E)-2-chloro-3-(2-((E)-3,3-dimethyl-1-(6-oxo-6-phenoxyhexyl)indolin-2-ylidene)ethenyl)cyclohex-1-en-1-yl)ethenyl)-1-ethyl-3,3-dimethyl-3H-indol-1-ium 2,2,2-trifluoroacetate [Example 118]	–	1.73
CC[N+]1=C(/C=C/C2=C(Oc3ccc(S(=O)(=O)O)cc3)C(=C/C=C3/N(CCCCCC(=O)Oc4ccccc4)c4ccccc4C3(C)C)/CCC2)C(C)(C)c2ccccc21 [Example 20, 2-((E)-2-((E)-3-(2-((E)-3,3-dimethyl-1-(6-oxo-6-phenoxyhexyl)indol-2-methylene)ethenyl)-2-(4-sulfophenoxy)cyclohex-1-en-1-yl)ethenyl)-1-ethyl-3,3-dimethyl-3H-indol-1-ium Formate]	782 nm	2.60
CC1(C)C(/C=C/C2=C(Cl)C(=C/C=C3/N(CCCCCC(=O)O)c4ccccc4C3(C)C)/CC2)=[N+](CCCCCC(=O)O)c2ccccc21 [Example 84, 1-(5-carboxypentyl)-2-((E)-2-((E)-3-(2-((E)-1-(5-carboxypentyl)-3,3-dimethylindolin-2-ylidene)ethenyl)-2-chlorocyclopent-1-en-1-yl)ethenyl)-3,3-dimethyl-3H-indol-1-ium Chloride]	–	2.41
CC[N+]1=C(/C=C/C2=C(Sc3ccccc3)C(=C/C=C3/N(CCCCCC(=O)Oc4ccccc4)c4ccccc4C3(C)C)/CCC2)C(C)(C)c2ccccc21.[Cl-] [Example 106]	807.5 nm	1.997
CC1(C)C(/C=C/C2=C(Cl)C(=C/C=C3/N(CCCCCC(=O)Oc4ccccc4)c4ccccc4C3(C)C)/CCC2)=[N+](CCCCCC(=O)Oc2ccccc2)c2ccccc21 [Example 5, 2-((E)-2-((E)-2-chloro-3-(2-((E)-3,3-dimethyl-1-(6-oxo-6-phenoxyhexyl)indolin-2-ylidene)ethenyl)cyclohex-1-en-1-yl)ethenyl)-3,3-dimethyl-1-(6-oxo-6-phenoxyhexyl)-3H-indol-1-ium Chloride]	796.5 nm	1.17
5-carboxy-2-((E)-2-((E)-2-chloro-3-(2-((E)-3,3-dimethyl-1-(6-oxo-6-phenoxyhexyl)indolin-2-ylidene)ethenyl)cyclohex-1-en-1-yl)ethenyl)-1,3,3-trimethyl-3H-indol-1-ium 2,2,2-trifluoroacetate [Example 120]	–	1.73
CC[N+]1=C(/C=C/C2=C(Cl)C(=C/C=C3/N(CCCCCC(=O)Oc4ccccc4)c4ccccc4C3(C)C)/CCC2)C(C)(C)c2cc(S(C)(=O)=O)ccc21 [Example 40, 2-((E)-2-((E)-2-chloro-3-(2-((E)-3,3-dimethyl-1-(6-oxo-6-phenoxyhexyl)indolin-2-ylidene)ethenyl)cyclohex-1-en-1-yl)ethenyl)-1-ethyl-3,3-dimethyl-5-(methylsulfonyl)-3H-indol-1-ium Chloride]	–	0.93
C[N+]1=C(/C=C/C2=C(Cl)C(=C/C=C3/N(CCOCCOCCC(=O)Oc4ccccc4)c4ccccc4C3(C)C)/CCC2)C(C)(C)c2ccccc21 [Example 51, 2-((E)-2-((E)-2-chloro-3-(2-((E)-3,3-dimethyl-1-(2-(2-(3-oxo-3-phenoxypropoxy)ethoxy)ethyl)indolin-2-ylidene)ethenyl)cyclohex-1-en-1-yl)ethenyl)-1,3,3-trimethyl-3H-indol-1-ium Formate]	–	1.9
C[N+]1=C(/C=C/C2=C(Cl)C(=C/C=C3/N(CCOCCOCCOCc4ccccc4)c4ccccc4C3(C)C)/CCC2)C(C)(C)c2ccccc21 [Example 56, 2-((E)-2-((E)-3-(2-((E)-1-(2-(2-(2-(benzyloxy)ethoxy)ethoxy)ethyl)-3,3-dimethylindolin-2-ylidene)ethenyl)-2-chlorocyclohex-1-en-1-yl)ethenyl)-1,3,3-trimethyl-3H-indol-1-ium 2,2,2-trifluoroacetate]	–	1.85
CC[N+]1=C(/C=C/C2=C(Oc3ccc(NC(=O)/C=C/CN(C)C)cc3)C(=C/C=C3/N(CCCCCC(=O)Oc4c(C)cccc4C)c4ccccc4C3(C)C)/CCC2)C(C)(C)c2ccccc21.[Cl-] [Example 115]	–	2.24
CC[N+]1=C(/C=C/C2=C(Oc3ccc(C#N)cc3)C(=C/C=C3/N(CCCCCC(=O)Oc4c(C)cccc4C)c4ccccc4C3(C)C)/CCC2)C(C)(C)c2ccccc21 [Example 114]	–	2.46
C[N+]1=C(/C=C/C2=C(Cl)C(=C/C=C3/N(CCOCCC(=O)Oc4ccccc4)c4ccccc4C3(C)C)/CCC2)C(C)(C)c2ccccc21 [Example 52, 2-((E)-2-((E)-2-chloro-3-(2-((E)-3,3-dimethyl-1-(2-(3-oxo-3-phenoxypropoxy)ethyl)indolin-2-ylidene)ethenyl)cyclohex-1-en-1-yl)ethenyl)-1,3,3-trimethyl-3H-indol-1-ium Chloride]	–	2.14
